The target in assay [1] is T1, Adrenergic receptor alpha-2 (Homo sapiens, UniProt P08913+P18825+P18089).
T1 sequence (P08913 whole entry): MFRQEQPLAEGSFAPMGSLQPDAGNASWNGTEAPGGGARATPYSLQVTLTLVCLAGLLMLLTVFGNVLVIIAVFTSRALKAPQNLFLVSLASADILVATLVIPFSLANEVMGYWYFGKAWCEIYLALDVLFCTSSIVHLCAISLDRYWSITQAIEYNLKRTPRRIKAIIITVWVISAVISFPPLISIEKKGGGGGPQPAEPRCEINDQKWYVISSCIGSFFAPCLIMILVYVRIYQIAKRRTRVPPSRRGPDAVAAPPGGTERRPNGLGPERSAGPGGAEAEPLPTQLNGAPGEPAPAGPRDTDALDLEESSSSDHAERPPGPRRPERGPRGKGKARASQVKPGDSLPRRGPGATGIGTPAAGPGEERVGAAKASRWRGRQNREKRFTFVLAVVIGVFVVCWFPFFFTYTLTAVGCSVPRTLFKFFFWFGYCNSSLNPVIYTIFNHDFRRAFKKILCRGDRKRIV
T1 sequence (P18825 whole entry): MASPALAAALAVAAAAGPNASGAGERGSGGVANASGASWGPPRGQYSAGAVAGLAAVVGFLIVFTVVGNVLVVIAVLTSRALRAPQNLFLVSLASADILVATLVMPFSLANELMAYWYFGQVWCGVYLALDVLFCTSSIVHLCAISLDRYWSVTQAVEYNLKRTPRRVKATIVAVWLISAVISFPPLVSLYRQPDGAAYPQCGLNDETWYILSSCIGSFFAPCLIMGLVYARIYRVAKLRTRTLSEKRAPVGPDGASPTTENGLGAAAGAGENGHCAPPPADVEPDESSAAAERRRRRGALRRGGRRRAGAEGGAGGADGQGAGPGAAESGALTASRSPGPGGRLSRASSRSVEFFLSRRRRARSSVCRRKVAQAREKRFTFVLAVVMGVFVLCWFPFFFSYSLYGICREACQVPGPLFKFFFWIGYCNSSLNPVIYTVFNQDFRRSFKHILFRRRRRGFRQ
T1 sequence (P18089 whole entry): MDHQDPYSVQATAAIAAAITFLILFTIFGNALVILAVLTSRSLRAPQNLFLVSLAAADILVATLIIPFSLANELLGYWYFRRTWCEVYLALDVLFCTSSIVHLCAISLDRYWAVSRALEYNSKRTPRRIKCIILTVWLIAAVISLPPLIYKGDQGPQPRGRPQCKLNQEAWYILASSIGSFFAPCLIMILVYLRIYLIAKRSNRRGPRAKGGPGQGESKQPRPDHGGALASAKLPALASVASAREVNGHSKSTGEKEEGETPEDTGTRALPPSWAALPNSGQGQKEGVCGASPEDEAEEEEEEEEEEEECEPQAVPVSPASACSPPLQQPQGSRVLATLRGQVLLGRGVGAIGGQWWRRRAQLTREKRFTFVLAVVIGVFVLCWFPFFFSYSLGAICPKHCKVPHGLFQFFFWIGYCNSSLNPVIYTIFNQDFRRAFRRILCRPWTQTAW
Briefly: Binding affinity for Alpha-2 adrenergic receptor of CHO-C10 membrane preparation. Also noted: species or system Cricetulus griseus.

Assay [2] addresses T2, Adrenergic receptor alpha-1 (Homo sapiens, UniProt P35348+P25100+P35368).
T2 sequence (P35348 whole entry): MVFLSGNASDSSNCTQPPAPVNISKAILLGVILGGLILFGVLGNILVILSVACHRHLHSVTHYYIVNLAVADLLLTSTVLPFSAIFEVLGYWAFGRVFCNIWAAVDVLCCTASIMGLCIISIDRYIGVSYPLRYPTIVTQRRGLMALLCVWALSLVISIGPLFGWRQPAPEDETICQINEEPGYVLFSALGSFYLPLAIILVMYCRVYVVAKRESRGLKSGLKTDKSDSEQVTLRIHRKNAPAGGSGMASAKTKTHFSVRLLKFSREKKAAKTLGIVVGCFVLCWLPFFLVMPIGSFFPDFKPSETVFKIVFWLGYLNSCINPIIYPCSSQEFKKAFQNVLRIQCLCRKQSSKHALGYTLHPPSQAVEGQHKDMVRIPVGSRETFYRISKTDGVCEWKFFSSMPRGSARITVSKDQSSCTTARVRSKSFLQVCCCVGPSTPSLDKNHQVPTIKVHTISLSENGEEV
T2 sequence (P25100 whole entry): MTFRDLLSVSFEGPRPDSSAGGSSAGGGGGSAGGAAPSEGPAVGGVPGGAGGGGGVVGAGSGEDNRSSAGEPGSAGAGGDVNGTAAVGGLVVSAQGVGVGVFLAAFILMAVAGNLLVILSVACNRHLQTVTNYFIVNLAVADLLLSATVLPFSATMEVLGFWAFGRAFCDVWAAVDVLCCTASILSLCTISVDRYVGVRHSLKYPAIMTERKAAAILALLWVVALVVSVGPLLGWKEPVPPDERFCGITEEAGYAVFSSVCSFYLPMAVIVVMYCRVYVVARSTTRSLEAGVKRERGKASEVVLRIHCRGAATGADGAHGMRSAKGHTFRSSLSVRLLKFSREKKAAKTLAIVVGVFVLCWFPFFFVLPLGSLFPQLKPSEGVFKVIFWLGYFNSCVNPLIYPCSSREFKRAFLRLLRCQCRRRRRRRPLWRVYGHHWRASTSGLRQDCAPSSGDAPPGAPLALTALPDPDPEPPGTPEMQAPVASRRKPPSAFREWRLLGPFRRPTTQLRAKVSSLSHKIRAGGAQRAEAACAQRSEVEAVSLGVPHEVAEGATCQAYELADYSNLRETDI
T2 sequence (P35368 whole entry): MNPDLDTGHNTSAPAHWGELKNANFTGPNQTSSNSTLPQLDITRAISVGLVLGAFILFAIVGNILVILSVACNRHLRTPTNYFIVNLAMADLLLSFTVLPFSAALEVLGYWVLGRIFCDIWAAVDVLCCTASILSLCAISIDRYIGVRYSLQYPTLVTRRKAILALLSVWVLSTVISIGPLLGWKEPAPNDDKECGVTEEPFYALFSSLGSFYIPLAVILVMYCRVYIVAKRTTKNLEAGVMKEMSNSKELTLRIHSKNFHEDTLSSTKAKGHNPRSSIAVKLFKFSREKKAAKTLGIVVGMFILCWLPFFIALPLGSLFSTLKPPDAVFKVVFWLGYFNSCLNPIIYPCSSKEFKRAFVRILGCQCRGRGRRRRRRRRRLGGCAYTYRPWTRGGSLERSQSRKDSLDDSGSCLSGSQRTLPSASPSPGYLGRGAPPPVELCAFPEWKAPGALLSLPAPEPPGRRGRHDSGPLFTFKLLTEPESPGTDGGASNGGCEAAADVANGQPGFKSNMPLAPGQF
The assay is described as follows: Binding affinity for Alpha-1 adrenergic receptor of human cerebral cortex membrane. The assay is classed as tissue-based.

SMILES strings stand for the structures.

A word on the Ki: it is the equilibrium dissociation constant of an inhibitor or competing ligand from its target.

In the case of `CN(C1=NCCN1)c1ccc2c(c1)OCCO2`, the Ki was found to be 180 nM in assay [1] and 30000 nM in assay [2].

`Cc1c(NC2=NCCN2)ccc2c1NCCO2` had an inhibition constant (Ki) in assay [1] of 1.2 nM.

With `C/N=C(\NC)Nc1ccc2nccnc2c1Br`, the Ki in assay [1] is recorded as 5300 nM; in assay [2] it was 10000 nM.

As to `c1cc2c(cc1NC1=NCCN1)OCCO2`, the inhibition constant (Ki) in assay [2] is listed as 2400 nM. That is a single-digit micromolar value.

For `Cc1c(NC2=NCCN2)ccc2c1NCCN2`, the Ki in assay [1] amounted to 9.6 nM; in assay [2] it was 8900 nM.

The compound `c1cnc2cc(NC3=NCCN3)ccc2n1` came in with a Ki in assay [1] of 41 nM.

Turning to `Cc1c(NC2=NCCN2)ccc2c1OCCO2`, the Ki in assay [1] was 0.25 nM; in assay [2], 130 nM.

Regarding `Cc1ccccc1N=C1NCCN1`, the figures for the inhibitory constant (Ki) in assay [1] and in assay [2] were 7.8 nM and 2500 nM, respectively.

Consider `COc1ccc(NC2=NCCN2)c(C)c1OC`, for which the inhibition constant (Ki) in assay [1] worked out at 5.2 nM; in assay [2], 1500 nM.

For the compound `N=C(N)Nc1ccc2nccnc2c1Br`, the figures for the inhibition constant (Ki) in assay [1] and in assay [2] were 41 nM and 17000 nM, respectively.
